# pIC50: −log10 of the molar value.
# Experiments:
# HsYRS = molecular target: T1, HsYRS (Homo sapiens, UniProt P54577); assay: Tyrosine acylation of cognate tRNATyr by HsYRS; type: biochemical; conditions: YRS 0.25 μM, ATP 10 μM, 37°C 1 h
# T1 construct: made in house; host or cells: E. coli BL21(DE3), pET-11a
# T1 sequence (P54577 1-364): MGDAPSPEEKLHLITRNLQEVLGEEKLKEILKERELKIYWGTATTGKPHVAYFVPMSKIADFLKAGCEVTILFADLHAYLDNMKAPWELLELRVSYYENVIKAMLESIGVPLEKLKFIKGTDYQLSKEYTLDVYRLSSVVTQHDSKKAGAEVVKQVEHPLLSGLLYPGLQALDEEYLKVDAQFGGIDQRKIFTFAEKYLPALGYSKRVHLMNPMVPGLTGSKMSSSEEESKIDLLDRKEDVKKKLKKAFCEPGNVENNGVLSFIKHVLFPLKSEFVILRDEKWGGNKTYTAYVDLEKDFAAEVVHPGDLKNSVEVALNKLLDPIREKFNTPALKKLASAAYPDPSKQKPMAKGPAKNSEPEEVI
# H460 = H460 cell viability (ATP content); type: cell-based; conditions: Homo sapiens, NCI-H460, 72 h, read-out: H460 IC50(72h)
# Experimental: 574 H1650 is a human lung cancer derived ATG7-null cell line (49) that can be used to assess effects on targets
# 576 adenocarcinoma; bronchoalveolar carcinoma). Other cells lines used are: H460 (NCI-H460; human lung;
# 577 carcinoma; large cell lung cancer; ATCC: HTB-177); and HCT116 (human colon; colorectal carcinoma;
# 578 ATCC: CCL-247; Lot : 5056139). Each of the cell lines was received from the American Type Culture
# 579 Collection (ATCC) and passaged twice before freezing. Cells were cultured in the presence or absence of
# 580 inhibitors and cell viability was assessed by comparing the ATP content in compound-treated wells with
# 581 that in DMSO-treated wells as previously described (11). […]
# 585 37°C humidified incubator as adherent semi-confluent monolayers in complete Dulbecco’s Modified Eagle
# 586 Media (c-DMEM). DMEM (Gibco™, Thermo Fisher Scientific, Australia) was supplemented with 10%
# [1] = test system: protein translation in P. falciparum (Cam3.II-rev) schizonts; assay: Protein translation assay (O-propargyl-puromycin incorporation); type: cell-based, Plasmodium falciparum; conditions: Plasmodium falciparum, 3 h, read-out: IC50 (Translation), schizont stage Cam3.II-rev, 3 h exposure, OPP incorporation
# Experimental: 723 then fixed for 10 minutes (4% formaldehyde/0.02% glutaraldehyde in PBS). The click reaction was
# 724 performed for 1 h in the presence of CuSO4 (0.1 mM), THPTA (0.5 mM) and sodium ascorbate (5 mM) to
# 725 bring about azide-alkyne cycloaddition to Alexa Fluor 488 azide (0.1 µM). Flow cytometry was performed
# 726 using the FITC and Cy™5.5 channels to detect the Alexa Fluor 488 and PI, respectively.
# 729 Cam 3.II_Rev (25) trophozoite-infected RBCs (25-30 h p.i.) were incubated with inhibitor for 3 h at 10%
# 730 hematocrit and 5% parasitemia. The RBC pellet was washed 3 x in PBS + cOmplete. Cells were centrifuged
# 731 at 380 x g for 5 min and the pelleted cells lysed by resuspension in PBS + 0.05% saponin for 5 min on ice.
compound,measurement,setting,value
Nc1ncnc2c1c(OC(F)F)nn2[C@@H]1O[C@H](COS(N)(=O)=O)[C@@H](O)[C@H]1O [ML901],pIC50,HsYRS,< 3.30
same,pIC50,H460,5.33
same,pIC50,[1],7.19
